Measured values from patent US20060100431A1, “Biologically active compounds” (Amura Therapeutics Limited, priority 2002, published 2006).
Like-named read-outs stand apart in the source and are kept apart here.

How the values were obtained:
Bovine cathepsin S = molecular target: T1, Bovine cathepsin S (Bos taurus, UniProt P25326); experiment: Cathepsin S peptidase activity assay, bovine enzyme (Ki); type: biochemical
T1 construct: purchased CN Biosciences
Procedure, shortened: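 Bovine cathepsin S activity followed by fluorescence increase from substrate conversion to product over time, enzyme added to start the reaction, at 25±1° C. Buffer 10 mM bis-tris-propane pH 6.5 with 1 mM EDTA, 5 mM 2-mercaptoethanol, 1 mM CaCl2; DMSO kept below 1% (vol./vol.).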

human cathepsin B = molecular target: T2, human cathepsin B (Homo sapiens, UniProt P07858); experiment: Cathepsin B peptidase activity assay (Ki); type: biochemical; settings: read-out: Ki, inhibitors of cathepsin B
T2 construct: purchased CN Biosciences
Procedure, shortened: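 Buffer: 10 mM bis-tris-propane pH 6.5, 1 mM EDTA, 5 mM 2-mercaptoethanol, 1 mM CaCl2; DMSO <1%. Ki assumed reversible, pure-competitive, from Ki^app=Ki(1+[So]/KM^app) by non-linear regression.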

[1] = Table 5, read-out: Ki Bovine Cathepsin S
[2] = species of cathepsin S not given, read-out: Ki, inhibitors of cathepsin S

T1 sequence (P25326 115-331): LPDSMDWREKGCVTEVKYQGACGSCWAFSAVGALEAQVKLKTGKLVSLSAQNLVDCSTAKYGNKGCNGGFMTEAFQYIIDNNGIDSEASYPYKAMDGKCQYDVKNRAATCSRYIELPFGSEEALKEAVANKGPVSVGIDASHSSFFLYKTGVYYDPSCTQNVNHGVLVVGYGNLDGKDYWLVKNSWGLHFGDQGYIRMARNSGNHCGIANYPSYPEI

| SMILES | Ki (Bovine cathepsin S; [1]) [µM] | Ki (human cathepsin B) [µM] | Ki (Bovine cathepsin S; [2]) [µM] |
| --- | --- | --- | --- |
| CC(C)C[C@H](NC(=O)c1ccc(-c2cccs2)cc1)C(=O)N1CC[C@@H]2[C@H]1C(=O)CN2C(=O)c1ccccc1 [Example 2, (3aR,6aS)-N-[(1S)-1-(4-Benzoyl-6-oxo-hexahydro-pyrrolo[3,2-b]pyrrole-1-carbonyl)-3-methyl-butyl]-4-thiophen-2-yl-benzamide] | > 1 | < 5 | – |
| CC(C)C[C@H](NC(=O)c1ccc(C(C)(C)C)cc1)C(=O)N1NC[C@@H]2[C@H]1C(=O)CN2C(=O)c1ccccc1 [Example 249a, (3aR,6aS)-N-[(1S)-1-(4-benzoyl-6-oxo-hexahydropyrrolo[3,2-c]pyrazole-1-carbonyl)-3-methylbutyl]-4-tert-butylbenzamide] | – | < 5 | < 5 |
| CC(=O)N[C@@H](CC(C)C)C(=O)N1CC(=O)[C@@H]2[C@H]1CCN2C(=O)[C@H](CC(C)C)NC(=O)c1ccc(N(C)C)cc1 [Example 151, (3aR,6aS)-N-{(1S)-1-[4-((2S)-2-Acetylamino-4-methyl-pentanoyl)-6-oxo-hexahydro-pyrrolo[3,2-b]pyrrole-1-carbonyl]-3-methyl-butyl}-4-dimethylamino-benzamide] | – | < 5 | < 5 |
| CC(C)C[C@H](NC(=O)c1ccc(N2CCNCC2)cc1)C(=O)N1CC[C@@H]2[C@H]1C(=O)CN2C(=O)c1ccccc1 [Example 194, (3aR,6aS)-N-[(1S)-1-(4-Benzoyl-6-oxo-hexahydro-pyrrolo[3,2-b]pyrrole-1-carbonyl)-3-methyl-butyl]-4-piperazin-1-yl-benzamide] | – | < 5 | < 5 |
| CC(C)C[C@H](NC(=O)c1ccc(N)cc1)C(=O)N1NC[C@@H]2[C@H]1C(=O)CN2C(=O)c1cccc(S(C)(=O)=O)c1 [Example 249c, (3aR,6aS)-4-amino-N-{(1S)-1-[4-(3-methanesulfonylbenzoyl)-6-oxo-hexahydropyrrolo [3,2-c]pyrazole-1-carbonyl]-3-methylbutyl}benzamide] | – | < 5 | < 5 |
| CC(C)C[C@H](NC(=O)c1cc2ccccc2s1)C(=O)N1CC[C@@H]2[C@H]1C(=O)CN2C(=O)c1ccccc1 [Example 7, (3aR,6aS)-Benzo[b]thiophene-2-carboxylic acid [(1S)-1-(4-benzoyl-6-oxo-hexahydro-pyrrolo[3,2-b]pyrrole-1-carbonyl)-3-methyl-butyl]-amide] | – | < 5 | < 5 |
| CC(C)C[C@H](NC(=O)c1ccc(-n2cccn2)cc1)C(=O)N1CC[C@@H]2[C@H]1C(=O)CN2C(=O)c1ccccc1 [Example 91, (3aR,6aS)-N-[(1S)-1-(4-Benzoyl-6-oxo-hexahydro-pyrrolo[3,2-b]pyrrole-1-carbonyl)-3-methyl-butyl]-4-pyrazol-1-yl-benzamide] | – | < 5 | < 5 |
| O=C(N[C@@H](CC1CCCCC1)C(=O)N1CC[C@@H]2[C@H]1C(=O)CN2C(=O)c1ccccc1)c1ccsc1 [Example 250, (3aR,6aS)-Thiophene-3-carboxylic acid [(1S)-2-(4-benzoyl-6-oxo-hexahydro-pyrrolo[3,2-b]pyrrole-1-yl)-1-cyclohexylmethyl-2-oxo-ethyl]-amide] | < 0.1 | – | – |
| CC(C)C[C@H](NC(=O)c1ccc(N(C)C)cc1)C(=O)N1CC[C@@H]2[C@H]1C(=O)CN2C(=O)c1ccccc1 [Example 14, (3aR,6aS)-N-[(1S)-1-(4-Benzoyl-6-oxo-hexahydro-pyrrolo[3,2-b]pyrrole-1-carbonyl)-3-methyl-butyl]-4-dimethylamino-benzamide] | – | < 5 | < 5 |
| CC(C)C[C@H](NC(=O)c1ccc(N(C)C)cc1)C(=O)N1CC[C@@H]2[C@H]1C(=O)CN2C(=O)[C@@H](NC(=O)OCc1ccccc1)C(C)C [Example 158, (3aS,6aR)-((S)-1-{4-[(2S)-2-(4-Dimethylamino-benzoylamino)-4-methyl-pentanoyl]-3-oxo-hexahydro-pyrrolo[3,2-b]pyrrole-1-carbonyl}-2-methyl-propyl)-carbamic acid benzyl ester] | – | < 5 | < 5 |
| CC(C)C[C@H](NC(=O)c1ccc(N(C)C)cc1)C(=O)N1CC[C@@H]2[C@H]1C(=O)CN2C(=O)c1csc2ccccc12 [Example 103, (3aR,6aS)-N-{(1S)-1-[4-(Benzo[b]thiophene-3-carbonyl)-6-oxo-hexahydro-pyrrolo[3,2-b]pyrrole-1-carbonyl]-3-methyl-butyl}-4-dimethylamino-benzamide] | – | < 5 | < 5 |
| CC(C)C[C@H](NC(=O)c1cccc(N2CCNCC2)c1)C(=O)N1CC[C@@H]2[C@H]1C(=O)CN2C(=O)c1ccccc1 [Example 247, (3aR,6aS)-N-[(1S)-1-(4-Benzoyl-6-oxo-hexahydro-pyrrolo[3,2-b]pyrrole-1-carbonyl)-3-methyl-butyl]-3-piperazin-1-yl-benzamide] | – | < 5 | < 5 |
| CC(C)(C)c1ccc(C(=O)N[C@@H](Cc2ccc(O)cc2)C(=O)N2CC[C@@H]3[C@H]2C(=O)CN3C(=O)c2ccccc2)cc1 [Example 346, (3aR,6aS)-N-[(1S)-2-(4-Benzoyl-6-oxo-hexahydro-pyrrolo[3,2-b]pyrrol-1-yl)-1-(4-hydroxybenzyl)-2-oxo-ethyl]-4-tert-butyl-benzamide] | > 10 | – | – |
| CC(C)C[C@H](NC(=O)c1cccc(N(C)C)c1)C(=O)N1CC[C@@H]2[C@H]1C(=O)CN2C(=O)c1cccc(S(C)(=O)=O)c1 [Example 59, (3aR,6aS)-3-Dimethylamino-N-{(1S)-1-[4-(3-methanesulfonyl-benzoyl)-6-oxo-hexahydro-pyrrolo[3,2-b]pyrrole-1-carbonyl]-3-methyl-butyl}-benzamide] | – | < 5 | < 5 |
| CC(C)C[C@H](NC(=O)c1ccc2c(c1)CCCN2)C(=O)N1CC[C@@H]2[C@H]1C(=O)CN2C(=O)c1ccccc1 [Example 87, (3aR,6aS)-1,2,3,4-Tetrahydro-quinoline-6-carboxylic acid [(1S)-1-(4-benzoyl-6-oxo-hexahydro-pyrrolo[3,2-b]pyrrole-1-carbonyl)-3-methyl-butyl]-amide] | – | < 5 | < 5 |
| CC(C)C[C@H](NC(=O)c1ccc2ncsc2c1)C(=O)N1CC[C@@H]2[C@H]1C(=O)CN2C(=O)c1ccccc1 [Example 90, (3aR,6aS)-Benzothiazole-6-carboxylic acid [(1S)-1-(4-benzoyl-6-oxo-hexahydro-pyrrolo[3,2-b]pyrrole-1-carbonyl)-3-methyl-butyl]-amide] | – | < 5 | < 5 |
| O=C(N[C@@H](Cc1ccc(O)cc1)C(=O)N1CC[C@@H]2[C@H]1C(=O)CN2C(=O)c1ccccc1)c1cccc2ccccc12 [Example 296, (3aR,6aS)-Naphthalene-1-carboxylic acid [(1S)-2-(4-benzoyl-6-oxo-hexahydro-pyrrolo[3,2-b]pyrrole-1-yl)-1-(4-hydroxybenzyl)-2-oxo-ethyl]-amide] | > 5 | < 5 | – |
| CC(C)CC(NC(=O)c1ccc(N)cc1)C(=O)N1NC[C@@H]2[C@H]1C(=O)CN2C(=O)c1ccccc1 (stereo partly drawn) [Example 249b, (3aR,6aS)-4-amino-N-[1-(4-benzoyl-6-oxo-hexahydropyrrolo[3,2-c]pyrazole-1-carbonyl)-3-methylbutyl)benzamide] | – | < 5 | < 5 |
| CC(C)C[C@H](NC(=O)c1ccc(OC(F)(F)F)cc1)C(=O)N1CC[C@@H]2[C@H]1C(=O)CN2C(=O)c1ccccc1 [Example 173, (3aR,6aS)-N-[(1S)-1-(4-Benzoyl-6-oxo-hexahydro-pyrrolo[3,2-b]pyrrole-1-carbonyl)-3-methyl-butyl]-4-trifluoromethoxy-benzamide] | – | < 5 | < 5 |
